Patent publication US10335365B2, “Bladder cancer specific ligand peptides” (The Regents of the University of California, priority 2009, dated 2019)
Positions of bridges follow the written chain, without caps; N, C: chain ends. Non-standard residues stand in square brackets, D forms with d. No end group written: not given here.

System: 5637 bladder cancer cells
Test: Alanine walk and X5 glycine addition, bead binding to 5637 cells
Set-up: species or system human
Conditions: compared with parental PLZ4
Experimental: FIG. 6A-C. Binding of PLZ4 to ανβ3 integrin A. PLZ4 binds to ανβ3 integrin. Beads coated with PLZ4 peptides were incubated with K562 cells transfected with different integrin subunits. PLZ4 can only bind to K562 cells when ανβ3 integrin is expressed on the surface. B. Alanine walk to determine the amino acids important for cell binding. Each amino acid in PLZ4 (SEQ ID NO: 5) was replaced with alanine one at a time to generate beads covered with new peptides (SEQ ID NOS 24-30, respectively, in order of appearance) (alanine walk), and tested for their binding to 5637 bladder cancer cells. Semi-quantitative system was used to determine binding activity: ++++ means very strong binding with 75-100% bead surface covered by cells; +++ means strong binding with 50-74% bead surface covered by cells; […] binding with 25-49% bead surface covered by cells; + means weak binding with 1-24% bead surface covered by cells; − means no binding. C. The effects of glycine residues at the X5 position on the binding of PLZ4 to bladder cancer cells. The peptides on beads in each panel have the same backbone sequence (cQDGRKGFc; SEQ ID NO:11) as PLZ4 (cQDGRMGFc; SEQ ID NO:12) except the M at the X5 position has been replaced with K. One (c) to six (h) numbers of glycine were conjugated to K from Panel c to h (SEQ ID NO:13). The OBOC beads were incubated with 5637 TCC cells. […]

## cQDGRKGFc ([dC]QDGRKGF[dC]; disulfide 1-9) [PLZ4 backbone with the M at the X5 position replaced with K]
  binding of modified peptides on beads to 5637 cells: no significant changes in binding
